The text below walks through data of patent publication US20040047922A1, “Preparation with vascular protective and anti-oxidative effect and use thereof” (priority 2000, published 2004).

One assay relates to LDL. Put plainly: Cu(II)-induced formation of conjugated dienes in LDL isolated from plasma pre-incubated with the test substance (lag phase). The settings on record: FIG. 2. Type of assay: biochemical. How it is done: In-vitro LDL oxidation is a common model for testing various substances for their antioxidant properties because they accumulate in the LDL in vitro due to pre-incubation of the plasma with (primarily lipophilic) test substances (McLean und Hagaman, 1989, Biochemistry 28(1); pp. 321-327, Esterbauer et al, 1991b, Am. J. Clin. Nutr. 53, pp. 315S-321S). After accumulation, the influence of these substances on the oxidability of LDL can be studied.
Continuous measurement of the formation of conjugated dienes in LDL is an accepted method of comparing oxidizability of the lipid portion of various LDL samples (Esterbauer et al. 1989, Free Rad. Res. Comms. 6(1), pp. 67-75; Parthasarathy et al. 1998, Free Rad. Res. 28, pp. 583-591). […] The study was to find out whether accumulation of lemon oil or γ-terpinene in LDL can protect the LDL from Cu(II)-induced oxidation.
In another test, blood plasma was incubated with 0.5, 0.25, 0.1 and 0.01% γ-terpinene and the LDL isolated from it was tested for resistance against cooper-induced oxidation.

The test system of assay [1] is tryptophane residues in apo B-100 of LDL. Description: Cu(II)-induced loss of tryptophane fluorescence in LDL. Type of assay: biochemical. The settings on record: FIG. 5. The text has this:
Oxidation of HDL or LDL with Cu(II) goes along with a reduction of the tryptophane residues (Reyftmann et al., 1990, Biochim. Biophys. Acta 1042, pp. 159-167), which can be observed by measuring fluorescence. After adding Cu(II) to an LDL solution, fluorescence initially drops within a few seconds due to quenching effects caused by copper. […] The time before the slower phase changes into the faster phase can be defined as the lag phase, just like with diene conjugation. (Giessauf et.al., 1995, Biochim. Biophys. Acta 1256, pp. 221-232). The faster decline in fluorescence starts about at the same time as the propagation phase of diene conjugation and is most likely based on a reaction of lipid peroxidation products with tryptophane residues. We used this test system, too, to find out whether the accumulation of lemon oil or γ-terpinene in LDL influences the Cu(II)-induced loss of tryptophane fluorescence.

Each structure is given as a SMILES string.

Take `CC1=CCC(C(C)C)=CC1` [γ-terpinene]: the “lag phase of conjugated diene formation” value was “clearly extended” in the assay with LDL (0.01% γ-terpinene in the plasma); “expands depending on concentration” in the assay on LDL (plasma incubated with 0.5, 0.25, 0.1 and 0.01% γ-terpinene, copper-induced oxidation). For the same molecule, in the assay on LDL (0.1% γ-terpinene in the plasma), the “extension of the lag phase of conjugated diene formation” value is “about 250 minutes”. In addition, the “time without reaching the propagation phase” value in the assay on LDL (higher concentrations in the plasma (0.25 and 0.5% γ-terpinene)) was > 500 min. Moreover, in assay [1] (0.5% of γ-terpinene in the plasma), the “oxidation of tryptophane residues in LDL” value is “almost completely prevents”. In addition, the “early protein oxidation (loss of tryptophane fluorescence)” value in assay [1] (LDL enriched with γ-terpinene) is “slows down”.
